The text below walks through data of article PMC6745845, “In Vitro and in Vivo antitumor activity and the mechanism of siphonodictyal B in human colon cancer cells” (Cancer Medicine, 2019).

For data set [1], the system named is HCT 116 cells. In words: Western blot analysis. Format: cell-based, human. Here is the method: HCT 116 cells were seeded in six‐well plates at 2 × 10^5 cells/well and incubated for 24 houra. […] Cells were harvested and lysed using RIPA buffer. The proteins were separated on an SDS‐PAGE and transferred to PVDF membranes. Then, the membranes were blocked for 1 hour and incubated with primary antibodies overnight at 4°C. The membranes were washed and incubated with secondary antibodies for 1 hour at room temperature. Next, the resultant bands were detected using an Odyssey Infrared Imaging system (LI‐COR, NB, USA). Antibodies against phospho‐RB (Ser780), AKT, phospho‐AKT ([…]), PARP, phospho‐p38 MAPK (Thr180/Tyr182), p38 MAPK, and Bim were purchased from Cell Signaling Technology (Danvers, MA, USA). Antibodies against β‐actin and α‐tubulin were purchased from Sigma‐Aldrich.
(In general: A western blot detects proteins with antibodies after separation by electrophoresis.)

Data set [2] has as its target T1, PIM2 (Homo sapiens, UniProt Q9P1W9).
T1 construct: purchased Carna Biosciences
In words: off-chip mobility shift assay, PIM2. Format: biochemical. The protocol:
(§1) Cellular kinase activities were evaluated using nonradioisotopic methods such as the off‐chip mobility shift assay or IMAP (Carna Biosciences, Kobe, Japan).11 A kinase inhibition profiling panel was produced on the basis of the kinase inhibition rates. In off‐chip mobility shift assay, compound solution was prepared in assay buffer (20 mmol/L HEPES, 0.01% Triton X‐100, 2 mmol/L DTT, pH 7.5) and incubated in a 384‐well plate at room temperature. The reaction was stopped by adding Termination Buffer (QuickScout Screening Assist MSA; Carna Biosciences, Kobe, Japan). The substrate peptide and the phosphorylated peptide in the reaction solution were separated and quantified by LabChip system (Perkin Elmer, MA, USA). In IMAP assay, compound solution was prepared in assay buffer (20 mmol/L HEPES, 0.01% Tween‐20, 2 mmol/L DTT, pH 7.4) and incubated in a 384‐well black plate at room temperature. IMAP binding reagent (IMAP Screening Express kit; Molecular Devices, CA, USA) was added and incubated for 30 minutes. The kinase reaction was evaluated at the fluorescence polarization.

Data set [3] concerns 313 protein kinases. In words: kinase panel assay (off-chip mobility shift or IMAP). The following applies: 313 kinases; 10 μmol/L printed for siphonodictyal B. Format: biochemical. The protocol:
as §1

For data set [4], the target named is T2, CDK6/Cyclin D3 (Homo sapiens, UniProt Q00534).
T2 construct: purchased Carna Biosciences
T2 sequence (Q00534 whole entry): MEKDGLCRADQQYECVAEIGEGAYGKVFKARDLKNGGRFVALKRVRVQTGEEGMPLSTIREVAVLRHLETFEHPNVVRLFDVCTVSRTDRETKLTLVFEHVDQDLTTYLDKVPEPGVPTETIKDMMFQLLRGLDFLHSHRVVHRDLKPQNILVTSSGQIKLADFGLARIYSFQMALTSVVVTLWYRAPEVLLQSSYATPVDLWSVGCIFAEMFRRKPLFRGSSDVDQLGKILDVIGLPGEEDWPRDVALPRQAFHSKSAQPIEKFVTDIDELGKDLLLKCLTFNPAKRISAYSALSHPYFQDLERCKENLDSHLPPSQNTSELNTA
T2 sequence (P30281 whole entry partner): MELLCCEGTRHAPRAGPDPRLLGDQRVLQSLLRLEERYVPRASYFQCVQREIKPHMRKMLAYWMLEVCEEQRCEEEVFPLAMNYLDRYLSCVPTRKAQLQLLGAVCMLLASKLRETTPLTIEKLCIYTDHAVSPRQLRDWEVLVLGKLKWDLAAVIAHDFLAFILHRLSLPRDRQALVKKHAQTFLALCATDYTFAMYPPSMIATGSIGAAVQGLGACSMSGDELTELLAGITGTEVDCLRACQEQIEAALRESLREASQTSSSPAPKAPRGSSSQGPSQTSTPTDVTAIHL
In words: off-chip mobility shift assay, CDK6/Cyclin D3. Format: biochemical. The protocol:
as §1

Data set [5] deals with PIK3CA/PIK3R1. The following applies: cited from earlier work.
For data set [6], the target named is T3, CDK7/Cyclin H/MAT1 (Homo sapiens, UniProt P50613).
T3 construct: purchased Carna Biosciences
T3 sequence (P50613 whole entry): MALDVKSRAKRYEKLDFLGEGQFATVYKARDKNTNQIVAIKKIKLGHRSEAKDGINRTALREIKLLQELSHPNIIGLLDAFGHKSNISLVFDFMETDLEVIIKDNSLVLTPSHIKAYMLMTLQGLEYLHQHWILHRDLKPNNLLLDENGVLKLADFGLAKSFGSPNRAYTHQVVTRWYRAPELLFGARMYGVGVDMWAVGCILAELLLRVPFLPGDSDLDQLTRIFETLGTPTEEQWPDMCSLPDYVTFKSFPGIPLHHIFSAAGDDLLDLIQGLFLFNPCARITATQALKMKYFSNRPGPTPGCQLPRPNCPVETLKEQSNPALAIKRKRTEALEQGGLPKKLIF
T3 sequence (P51946 whole entry partner): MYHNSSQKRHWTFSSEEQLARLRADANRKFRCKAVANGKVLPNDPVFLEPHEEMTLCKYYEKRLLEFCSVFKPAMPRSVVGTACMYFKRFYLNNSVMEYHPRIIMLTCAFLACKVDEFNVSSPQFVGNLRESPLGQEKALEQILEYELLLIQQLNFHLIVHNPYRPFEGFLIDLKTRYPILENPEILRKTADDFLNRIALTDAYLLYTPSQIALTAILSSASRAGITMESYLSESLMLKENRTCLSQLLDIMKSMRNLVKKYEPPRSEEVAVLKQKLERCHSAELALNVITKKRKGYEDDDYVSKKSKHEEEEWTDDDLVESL
T3 sequence (P51948 whole entry partner): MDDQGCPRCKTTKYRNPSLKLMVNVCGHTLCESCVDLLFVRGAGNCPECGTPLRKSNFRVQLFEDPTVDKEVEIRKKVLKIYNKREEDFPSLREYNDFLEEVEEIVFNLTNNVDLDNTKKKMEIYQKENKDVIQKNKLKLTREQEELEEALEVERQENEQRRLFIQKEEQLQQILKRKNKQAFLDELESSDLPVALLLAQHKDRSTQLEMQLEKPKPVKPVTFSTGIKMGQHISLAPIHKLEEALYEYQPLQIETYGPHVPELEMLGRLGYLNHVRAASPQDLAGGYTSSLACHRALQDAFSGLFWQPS
In words: off-chip mobility shift assay, CDK7/Cyclin H/MAT1. The class given is biochemical. The protocol: as §1

Data set [7] deals with T4, CDK4/Cyclin D3 (Homo sapiens, UniProt P11802).
T4 construct: purchased Carna Biosciences
T4 sequence (P11802 whole entry): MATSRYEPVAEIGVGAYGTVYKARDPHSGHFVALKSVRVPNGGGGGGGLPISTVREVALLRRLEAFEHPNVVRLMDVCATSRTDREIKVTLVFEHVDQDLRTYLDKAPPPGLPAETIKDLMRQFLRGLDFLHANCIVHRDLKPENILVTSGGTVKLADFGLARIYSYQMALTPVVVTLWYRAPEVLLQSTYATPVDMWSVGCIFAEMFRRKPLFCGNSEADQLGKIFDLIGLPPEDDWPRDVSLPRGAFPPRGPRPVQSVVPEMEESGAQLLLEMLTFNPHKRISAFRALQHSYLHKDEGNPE
T4 sequence (P30281 whole entry partner): as the sequence (P30281 whole entry partner) above
In words: off-chip mobility shift assay, CDK4/Cyclin D3. The class given is biochemical. Here is the method: as §1

The subject of data set [8] is HCT 116 cells. In words: ROS detection by DCFDA staining. Format: cell-based, human. The following applies: 2 h. The protocol: HCT 116 cells were treated with each drug for 2 hours and stained using a DCFDA/H2DCFDA—Cellular Reactive Oxygen Species Detection Assay Kit (Abcam). The measurement was performed using FC‐500.
The test system of data set [9] is HCT 116 cells. In words: cell proliferation assay (Cell Counting Kit-8), HCT 116.
Description: Cells were seeded in 96‐well plates at 4000 cells/well and incubated for 24 hours, then treated with each concentration of siphonodictyal B. In experiments with SB203580 or NAC, cells were further preincubated for 24 or 1 hour before application of siphonodictyal B, respectively. Cells were incubated with Cell Counting Kit‐8 (Dojindo Molecular Technologies, Kumamoto, Japan) for 1.5 hours. Then, the absorbance of each well was measured using SpectraMaxM2e (Molecular Devices, CA, USA). The ratios of surviving cells to control cells treated with 0.1% DMSO were calculated.
Data set [10] has as its system HCT 116 xenograft. In words: xenograft mouse model, tumor growth. Format: in vivo, Balb/c nude mice. The following applies: 20 mg/kg intraperitoneally every 3 days. Here is the method:
(§2) All animal experiments were performed according to the Regulations for Animal Experiments and Related Activities at Tohoku University. Six‐week‐old female Balb/c nude mice were purchased from Charles River Laboratories (Wilmington, MA, USA). HCT 116 cells (5 × 10^6) were implanted subcutaneously into the right flanks of nude mice. After tumor formation was confirmed, mice were assigned to treatment with 20 mg/kg siphonodictyal B or vehicle (four mice per group) administered intraperitoneally every 3 days. Siphonodictyal B was dissolved in saline with 2.5% CremophorEL® and 2.5% ethanol. Tumor volumes were calculated on the basis of tumor mass using the formula length × width × width/2 (mm^3). The body weights of mice were also measured every 3 days.

The test system of data set [11] is phospho-p38. In words: immunohistochemistry of xenograft tumor tissue. The class given is in vivo, Balb/c nude mice. The following applies: 20 mg/kg intraperitoneally every 3 days, after all treatments. Here is the method: as §2
Tumor tissues were collected from mice, fixed in 10% formalin, and embedded in paraffin. Tumor sections on slides were dewaxed, rehydrated, and incubated with a specific antibody against phospho‐p38.

[12] abbreviates: read-out: PI3K (p110α/p85α) inhibitory activity IC50.
Setting [13] is: ref Kikuchi T et al. 2016;2016(34):5659-66, read-out: IC50 PIK3CA/PIK3R1.

Like-named read-outs stand apart in the source and are kept apart here.

T1 sequence (Q9P1W9 whole entry): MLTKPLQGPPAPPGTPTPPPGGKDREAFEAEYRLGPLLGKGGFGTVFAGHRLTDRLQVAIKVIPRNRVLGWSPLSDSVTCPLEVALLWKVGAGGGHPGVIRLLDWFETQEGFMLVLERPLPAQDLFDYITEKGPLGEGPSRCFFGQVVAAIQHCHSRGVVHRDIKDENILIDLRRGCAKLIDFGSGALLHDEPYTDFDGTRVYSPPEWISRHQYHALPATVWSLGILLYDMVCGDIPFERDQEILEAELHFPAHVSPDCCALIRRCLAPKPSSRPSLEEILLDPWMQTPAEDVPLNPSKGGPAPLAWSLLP

Regarding `CS(=O)(=O)N1CCN(Cc2cc3nc(-c4cccc5[nH]ncc45)nc(N4CCOCC4)c3s2)CC1` [GDC0941, reference compound], the AKT phosphorylation entry in data set [1] (2 μmol/L GDC0941, 48 h) is on record as “inhibited”.
For `CC1CCC2C(C)(C)CCCC2(C)c2c1oc1c(C=O)c(O)c(O)cc21` (stereo not shown) [Liphagal], the IC50 in [2] is 5.31 µM; in data set [4], 6.78 µM; in data set [5] (setting [12]), 4.1 µM; in data set [5] (setting [13]), 4.12 µM; in data set [6], 1.27 µM; in data set [7], 19.9 µM. For the same compound, the “inhibition of CDK4, CDK6, CDK7 and PIM-2 in kinase panel” value in data set [3] was “strongly inhibited”.
Turning to `CC1CC[C@H]2C(C)(C)CCC[C@]2(C)C1=Cc1cc(O)c(O)c(C=O)c1O` (stereo partly shown) [Siphonodictyal B], the IC50 was 6.99 µM in [2]; 69.1 µM in data set [4]; 2.6 µM in [5] (setting [12]); 2.62 µM in [5] (setting [13]); 13.7 µM in data set [6]; 32.9 µM in [7]. In addition, the “inhibition of CDK4, CDK6, CDK7 and PIM-2 in kinase panel” value in data set [3] is “strongly inhibited”. Also, the “ROS levels vs DMSO” value in data set [8] was “higher”. Also, in data set [8] (with NAC), the “increased ROS production on addition of NAC” value was “completely canceled”. Further, in data set [9] (HCT 116, 0.01-10 μmol/L, 24 h), the “cytotoxic effect (ratio of surviving cells)” value was “more potent cytotoxic effects than liphagal”. The “cytotoxic effect on addition of NAC” value in [9] (HCT 116, with NAC, 24 h) is given as “almost completely rescued”. In [9] (HCT 116, with SB203580, 48 h), the “cytotoxic effect on addition of SB203580” value is reported as “partially canceled”. Further, in data set [10], the “tumor volume vs control group” value is recorded as “significantly smaller”. The “tumor weight vs control group” value in data set [10] is reported as “significantly smaller”. Also, in [11], the “phosphorylated p38 staining in tumor tissue vs control group” value is on record as “strongly stained”. Further, in [1] (1.0 μmol/L, 48 h), the PARP cleavage result is “induced”. Further, the p38 phosphorylation result in [1] (1.0 μmol/L, 48 h) is “clearly induced”. For the same compound, the “AKT phosphorylation at Ser473” value in [1] (0.1, 0.5 or 1 μmol/L, 48 h) is “did not inhibit”. For the same compound, the “RB phosphorylation at Ser780” value in data set [1] (0.1, 0.5 or 1 μmol/L, 48 h) is given as “did not inhibit”. The “levels of Bim” value in data set [1] (0.5 or 1.0 μmol/L, 48 h) is “increased”. For the same compound, the “phosphorylated p38 on addition of NAC” value in data set [1] (with NAC, 24 h) is “reduced”. Further, in data set [1] (with SB203580, 48 h), the “p38 phosphorylation on addition of SB203580” value was “reduced”.
As to `CC(=O)c1c(C)c2cnc(Nc3ccc(N4CCNCC4)cn3)nc2n(C2CCCC2)c1=O` [palbociclib, Palbociclib, reference compound], the RB phosphorylation entry in [1] (10 μmol/L palbociclib, 48 h) is reported as “inhibited”.
